Laboratory results from patent US20170003277A1 (priority 2015, published 2017).

Assay: Level of Copaxone in THP-1 cell culture medium over time
Type: physicochemical
Conditions: THP-1 culture medium, over 24 hours; 50 μg/mL spiked

For glatiramer acetate [Copaxone®], the “Copaxone concentration in cell culture medium” value was 44 to 52 µg/mL.
